Experimental data from patent publication US5350743A, “Bisphosphonic acid derivatives, as bone resorption inhibitors” (Kaken Pharmaceutical Co., Ltd., priority 1991, dated 1994).

Key:
[1] = system: bone resorption activities by PTH; type: in vivo, rat (Wister male); settings: sc, 10 mg/kg; for Serum calcium value, 1 day value (b) / Serum increased calcium value [(b)-(a)]: 24 h
Description: Now, the test method with respect to the antihypercalcemic activities of the compounds of the present invention by using rats having the thyroid gland and the pala thyroid gland removed, and the results will be described.
Wister male rats of 7 weeks old (150-170 g) were anesthetized with nenbutal, and the thyroid gland and the pala thyroid gland were surgically removed by the method disclosed by Russel R. G. et al, Calcif. Tissue, Res., 183-196 (1970) and by Muehlbauer R. C. et al, Mineral Electrolyte Metab., 5 296-300 (1981). After the operation, the rats were fed on normal food for three days, and on the fourth day, the blood was sampled, and the serum calcium value was measured by an atomic absorption method, whereby rats having the serum calcium value lowered to a level of from 5 to 7 mg/de were selected.
These rats were divided into groups so that each group consisted of five rats. A compound of the present invention was dissolved in a 0.5% CMC aqueous solution or physiological saline and adjusted for administration at a dose of 10 mg/kg. Such a solution was subcutaneously administered at a dose of 2 ml/kg once a day for three days. To a control group, a 0.5% CMC aqueous solution or physiological saline was administered. Next day, 0.2 ml of the blood was sampled, and the serum calcium value was measured in the same manner as described above (this value was designated as 0 day value (a)).
At the same time, an osmotic pump (2001 Model, manufactured by Alza Co.) having parathyroid hormone (PTH) (50 μg/0.2 ml physiological saline) sealed in, was subcutaneously embedded on the back of each rat, and 24 hours later, the blood was sampled from the aorta abdominalis, whereupon the serum calcium value was measured (this value was designated as one day value (b)).
From the obtained results, the serum increased calcium value was calculated by the following formula: [formula]

[2] = toxicity, LD50, subcutaneous injection to mice; settings: mouse, in vivo, sc, ddy mice male five weeks old (22-27 g)
Protocol: LD50 of the compounds of Examples 2, 14, 16, 18, 33, 34 and 58 was at least 100 mg/kg when subcutaneously injected to ddy mice (male) of five weeks old (22-27 g).

CCOP(=O)(OCC)C(N1CCC(F)(F)CC1)P(=O)(OCC)OCC [Example 31, 4,4-Difluoropiperidinomethylene bisphosphonic acid ethyl ester]
Serum calcium value, 0 day value (a) [1]: 65.3 ± 3.15 µg/mL
Serum calcium value, 1 day value (b) [1]: 73.1 ± 3.96 µg/mL
Serum increased calcium value [(b)-(a)] [1]: 7.8 ± 3.57 µg/mL

CC1(C)CCN(C(P(=O)(O)O)P(=O)(O)O)CC1 [Example 60, 4,4-dimethylpiperidinomethylene bisphosphonic acid]
Serum calcium value, 0 day value (a) [1]: 46.5 ± 8.69 µg/mL
Serum calcium value, 1 day value (b) [1]: 110.4 ± 1.59 µg/mL
Serum increased calcium value [(b)-(a)] [1]: 63.9 ± 2.15 µg/mL

CCCCCCC1(O)CCN(C(P(=O)(O)O)P(=O)(O)O)CC1 [Example 35, 4-Hexyl-4-hydroxypiperidinomethylene bisphosphonic acid]
Serum calcium value, 0 day value (a) [1]: 70.8 ± 3.85 µg/mL
Serum calcium value, 1 day value (b) [1]: 84.5 ± 6.73 µg/mL
Serum increased calcium value [(b)-(a)] [1]: 13.7 ± 4.13 µg/mL

CCCCCC=C1CCN(C(P(=O)(O)O)P(=O)(O)O)CC1 [Example 16, 4-hexylidenepiperidinomethylene bisphosphonic acid]
Serum calcium value, 0 day value (a) [1]: 52.12 ± 1.86 µg/mL
Serum calcium value, 1 day value (b) [1]: 53.30 ± 4.89 µg/mL
Serum increased calcium value [(b)-(a)] [1]: 1.18 ± 3.70 µg/mL
LD50 [2]: ≥ 100 mg/kg

CC1(Cl)CCN(C(P(=O)(O)O)P(=O)(O)O)CC1 [Example 33, 4-Chloro-4-methylpiperidinomethylene bisphosphonic acid]
Serum calcium value, 0 day value (a) [1]: 52.1 ± 1.73 µg/mL
Serum calcium value, 1 day value (b) [1]: 53.3 ± 4.91 µg/mL
Serum increased calcium value [(b)-(a)] [1]: 1.2 ± 3.77 µg/mL
LD50 [2]: ≥ 100 mg/kg

CCC=C1CCN(C(P(=O)(O)O)P(=O)(O)O)CC1 [Example 20]
Serum calcium value, 0 day value (a) [1]: 63.02 ± 3.75 µg/mL
Serum calcium value, 1 day value (b) [1]: 71.73 ± 6.32 µg/mL
Serum increased calcium value [(b)-(a)] [1]: 8.71 ± 2.72 µg/mL

O=P(O)(O)C(N1CCCC12CCCCC2)P(=O)(O)O [Example 8, 1-azaspiro[4.5]decan-1-yl-methylene bisphosphonic acid]
Serum calcium value, 0 day value (a) [1]: 47.1 ± 4.17 µg/mL
Serum calcium value, 1 day value (b) [1]: 109.8 ± 2.07 µg/mL
Serum increased calcium value [(b)-(a)] [1]: 62.7 ± 4.27 µg/mL

O=P(O)(O)C(N1CCC2(CCCCC2)CC1)P(=O)(O)O [Example 2, 3-azaspiro[5.5]undecan-3-yl-methylene bisphosphonic acid]
Serum calcium value, 0 day value (a) [1]: 47.2 ± 2.22 µg/mL
Serum calcium value, 1 day value (b) [1]: 109.0 ± 8.47 µg/mL
Serum increased calcium value [(b)-(a)] [1]: 61.8 ± 7.38 µg/mL
LD50 [2]: ≥ 100 mg/kg

CCOP(=O)(OCC)C(N1CCC(C)(F)CC1)P(=O)(OCC)OCC [Example 37, 4-Fluoro-4-methylpiperidinomethylene bisphosphonic acid ethyl ester]
Serum calcium value, 0 day value (a) [1]: 53.8 ± 2.10 µg/mL
Serum calcium value, 1 day value (b) [1]: 55.7 ± 3.63 µg/mL
Serum increased calcium value [(b)-(a)] [1]: 1.9 ± 3.10 µg/mL

CC1(O)CCN(C(P(=O)(O)O)P(=O)(O)O)CC1 [Example 34, 4-Hydroxy-4-methylpiperidinomethylene bisphosphonic acid]
Serum calcium value, 0 day value (a) [1]: 61.0 ± 2.82 µg/mL
Serum calcium value, 1 day value (b) [1]: 68.3 ± 2.87 µg/mL
Serum increased calcium value [(b)-(a)] [1]: 7.4 ± 2.69 µg/mL
LD50 [2]: ≥ 100 mg/kg

CC=C1CCN(C(P(=O)(O)O)P(=O)(O)O)CC1 [Example 18, 4-ethylidenepiperidinomethylene bisphosphonic acid]
Serum calcium value, 0 day value (a) [1]: 61.34 ± 7.49 µg/mL
Serum calcium value, 1 day value (b) [1]: 66.05 ± 6.68 µg/mL
Serum increased calcium value [(b)-(a)] [1]: 4.72 ± 4.05 µg/mL
LD50 [2]: ≥ 100 mg/kg

O=P(O)(O)C(N1CCCC2(CCCCC2)C1)P(=O)(O)O [Example 12, 2-azaspiro[5.5]undecan-2-yl-methylene bisphosphonic acid]
Serum calcium value, 0 day value (a) [1]: 53.9 ± 7.82 µg/mL
Serum calcium value, 1 day value (b) [1]: 138.9 ± 4.29 µg/mL
Serum increased calcium value [(b)-(a)] [1]: 85.0 ± 6.27 µg/mL

C=C1CCN(C(P(=O)(O)O)P(=O)(O)O)CC1 [Example 14, 4-methylidenepiperidinomethylene bisphosphonic acid]
Serum calcium value, 0 day value (a) [1]: 60.99 ± 2.67 µg/mL
Serum calcium value, 1 day value (b) [1]: 68.34 ± 2.94 µg/mL
Serum increased calcium value [(b)-(a)] [1]: 7.35 ± 2.65 µg/mL
LD50 [2]: ≥ 100 mg/kg

CCOP(=O)(OCC)C(N1CCC(Cc2ccccc2)CC1)P(=O)(OCC)OCC [Example 27, 4-Benzylpiperidinomethylene bisphosphonic acid ethyl ester]
Serum calcium value, 0 day value (a) [1]: 66.2 ± 3.13 µg/mL
Serum calcium value, 1 day value (b) [1]: 79.5 ± 2.77 µg/mL
Serum increased calcium value [(b)-(a)] [1]: 13.3 ± 1.62 µg/mL

O=P(O)(O)C(N1CCC2(CCCC2)CC1)P(=O)(O)O [Example 6, 8-azaspiro[4.5]decan-8-yl-methylene bisphosphonic acid]
Serum calcium value, 0 day value (a) [1]: 40.3 ± 3.61 µg/mL
Serum calcium value, 1 day value (b) [1]: 90.6 ± 5.30 µg/mL
Serum increased calcium value [(b)-(a)] [1]: 50.3 ± 6.25 µg/mL

CCOP(=O)(OCC)C(N1CCC(C(N)=O)(N2CCCCC2)CC1)P(=O)(OCC)OCC [Example 29, 4-Carbamoyl-4-(1-piperidyl)piperidinomethylene bisphosphonic acid ethyl ester]
Serum calcium value, 0 day value (a) [1]: 66.7 ± 5.91 µg/mL
Serum calcium value, 1 day value (b) [1]: 74.8 ± 1.82 µg/mL
Serum increased calcium value [(b)-(a)] [1]: 8.1 ± 4.35 µg/mL

CCCC=C1CCN(C(P(=O)(OCC)OCC)P(=O)(OCC)OCC)CC1 [Example 21, 4-Butylidenepiperidinomethylene bisphosphonic acid ethyl ester]
Serum calcium value, 0 day value (a) [1]: 60.87 ± 5.61 µg/mL
Serum calcium value, 1 day value (b) [1]: 65.92 ± 7.91 µg/mL
Serum increased calcium value [(b)-(a)] [1]: 5.05 ± 3.19 µg/mL

O=P(O)(O)C(N1CCCCC12CCCCC2)P(=O)(O)O [Example 10, 1-azaspiro[5.5]undecan-1-yl-methylene bisphosphonic acid]
Serum calcium value, 0 day value (a) [1]: 45.5 ± 5.54 µg/mL
Serum calcium value, 1 day value (b) [1]: 108.8 ± 6.80 µg/mL
Serum increased calcium value [(b)-(a)] [1]: 63.3 ± 1.91 µg/mL

O=P(O)(O)C(N1CCC2(CC1)CC2(F)F)P(=O)(O)O [Example 4, 1,1-difluoro-6-azaspiro[2.5]octan-6-yl-methylene bisphosphonic acid]
Serum calcium value, 0 day value (a) [1]: 51.4 ± 7.23 µg/mL
Serum calcium value, 1 day value (b) [1]: 128.7 ± 3.31 µg/mL
Serum increased calcium value [(b)-(a)] [1]: 77.3 ± 6.37 µg/mL

NCCC(O)(P(=O)(O)O)P(=O)(O)O [APD, reference compound]
Serum calcium value, 0 day value (a) [1]: 60.2 ± 8.32 µg/mL
Serum calcium value, 1 day value (b) [1]: 83.6 ± 3.13 µg/mL
Serum increased calcium value [(b)-(a)] [1]: 23.4 ± 6.50 µg/mL

CC1(C)CCCN(C(P(=O)(O)O)P(=O)(O)O)C1 [Example 58, 3,3-dimethylpiperidinomethylene bisphosphonic acid]
Serum calcium value, 0 day value (a) [1]: 50.8 ± 2.35 µg/mL
Serum calcium value, 1 day value (b) [1]: 130.4 ± 7.57 µg/mL
Serum increased calcium value [(b)-(a)] [1]: 79.6 ± 7.07 µg/mL
LD50 [2]: ≥ 100 mg/kg

CC(C)(C)C1(O)CCN(C(P(=O)(O)O)P(=O)(O)O)CC1 [Example 54, 4-t-Butyl-4-hydroxypiperidinomethylene bisphosphonic acid]
Serum calcium value, 0 day value (a) [1]: 67.3 ± 2.83 µg/mL
Serum calcium value, 1 day value (b) [1]: 77.0 ± 3.74 µg/mL
Serum increased calcium value [(b)-(a)] [1]: 9.7 ± 5.32 µg/mL
